Data taken from paper PMC11995724, “Antibiotic target discovery by integrated phenotypic and activity-based profiling of electrophilic fragments” (Cell chemical biology, 2025).

Test: in vitro
Details: human, hek293t cells

| SMILES | viability at 48 h, 25 µM |
| --- | --- |
| CC(C)C(=O)Nc1ccc(C(=O)C(C)Cl)cc1 (centres unmarked) [10-E08, N-[4-(2-chloropropanoyl)phenyl]-2-methylpropanamide] | 100% |
| O=C(CCl)c1ccc2c(c1)CCN(C(=O)C(F)(F)F)C2 [10-E09, 1-[6-(2-chloroacetyl)-1,2,3,4-tetrahydroisoquinolin-2-yl]-2,2,2-trifluoroethan-1-one] | 4.03% |
| Cc1cc(C(=O)C(C)Cl)c(C)n1-c1ccc(OC(F)F)cc1 (centres unmarked) [10-E10, 2-chloro-1-{1-[4-(difluoromethoxy)phenyl]-2,5-dimethyl-1H-pyrrol-3-yl}propan-1-one] | 84.6% |
| O=C(CCl)C1CCCC2(CC2)C1 (centres unmarked) [10-E11, 2-chloro-1-{spiro[2.5]octan-5-yl}ethan-1-one] | 79.6% |
| CCn1c(-c2ccccc2)c(C(=O)CCl)c2ccccc21 [10-E12, 2-chloro-1-(1-ethyl-2-phenyl-1H-indol-3-yl)ethan-1-one] | 0.509% |
| CCn1ncc(C(=O)CCl)n1 [10-E13, 2-chloro-1-(2-ethyl-2H-1,2,3-triazol-4-yl)ethan-1-one] | 87.2% |
| Cn1c(N)c(C(=O)CCl)c(=O)n(C)c1=O [10-E14, 6-amino-5-(2-chloroacetyl)-1,3-dimethyl-1,2,3,4-tetrahydropyrimidine-2,4-dione] | 89.9% |
| O=C(CCl)Cc1ccc(Cl)c(Cl)c1 [10-E15, 1-chloro-3-(3,4-dichlorophenyl)propan-2-one] | 1.56% |
| O=C(CCl)c1cc(Cl)ccc1Cl [10-E16, 2-chloro-1-(2,5-dichlorophenyl)ethan-1-one] | 4.26% |
| O=C(CCl)Cc1cccc(Cl)c1 [10-E17, 1-chloro-3-(3-chlorophenyl)propan-2-one] | 1.29% |
| CCS(=O)(=O)N1CCc2cc(C(=O)CCl)ccc21 [10-E18, 2-chloro-1-[1-(ethanesulfonyl)-2,3-dihydro-1H-indol-5-yl]ethan-1-one] | 1.16% |
| O=C(CCl)Cc1ccc(F)cc1Cl [10-E19, 1-chloro-3-(2-chloro-4-fluorophenyl)propan-2-one] | 1.31% |
| O=C1C=CC(=O)N1CCc1ccccc1 [10-E20, 1-(2-phenylethyl)-2,5-dihydro-1H-pyrrole-2,5-dione] | 4.04% |
| O=C(O)C(c1ccccc1)N1C(=O)C=CC1=O (centres unmarked) [10-E21, 2-(2,5-dioxo-2,5-dihydro-1H-pyrrol-1-yl)-2-phenylacetic acid] | 92.4% |
| O=C(O)c1csc(C(=O)CCl)c1 [10-E22, 5-(2-chloroacetyl)thiophene-3-carboxylic acid] | 91.8% |
| COc1ccc2[nH]cc(C3=CCN(C(=O)C=CCN(C)C)CC3)c2c1 [10-F03, 4-(dimethylamino)-1-[4-(5-methoxy-1H-indol-3-yl)-1,2,3,6-tetrahydropyridin-1-yl]but-2-en-1-one] | 92.2% |
| CCN(c1ccc(C(=O)CCl)cc1)S(C)(=O)=O [10-F04, N-[4-(2-chloroacetyl)phenyl]-N-ethylmethanesulfonamide] | 22.5% |
| Cc1cc(C(=O)CCl)c(C)n1-c1ccon1 [10-F06, 2-chloro-1-[2,5-dimethyl-1-(1,2-oxazol-3-yl)-1H-pyrrol-3-yl]ethan-1-one] | 1.56% |
| Cn1c(=O)oc2cc(C(=O)CCl)ccc21 [10-F07, 6-(2-chloroacetyl)-3-methyl-2,3-dihydro-1,3-benzoxazol-2-one] | 110% |

| SMILES | viability at 48 h, 25 µM |
| --- | --- |
| CC(C)Cn1c(N)c(C(=O)CCl)c(=O)[nH]c1=O [10-F08, 6-amino-5-(2-chloroacetyl)-1-(2-methylpropyl)-1,2,3,4-tetrahydropyrimidine-2,4-dione] | 91.2% |
| C#CCN1C(=O)C=CC1=O [10-F09, 1-(prop-2-yn-1-yl)-2,5-dihydro-1H-pyrrole-2,5-dione] | 98.4% |
| N#Cc1ccc(C(=O)CCl)cc1 [10-F10, 4-(2-chloroacetyl)benzonitrile] | 49% |
| Cc1ccc(NC(=O)N2CCSSCC2)c(C)c1 [10-F11, N-(2,4-dimethylphenyl)-1,2,5-dithiazepane-5-carboxamide] | 102% |
| CCOc1ccc(C(=O)CCl)cc1 [10-F12, 2-chloro-1-(4-ethoxyphenyl)ethan-1-one] | 1.95% |
| Cc1ccc(C)c(N2C(=O)C=CC2=O)c1 [10-F13, 1-(2,5-dimethylphenyl)-2,5-dihydro-1H-pyrrole-2,5-dione] | 109% |
| N#CC(C(=O)CCl)=C1NC(C23CC4CC(CC(C4)C2)C3)=CS1 [10-F14, 2-[4-(adamantan-1-yl)-2,3-dihydro-1,3-thiazol-2-ylidene]-4-chloro-3-oxobutanenitrile] | 61.8% |
| O=C1C=CC(=O)N1c1ccc(F)cc1F [10-F15, 1-(2,4-difluorophenyl)-2,5-dihydro-1H-pyrrole-2,5-dione] | 89.5% |
| Cc1cc(C(=O)CCl)c(C)n1CCc1cccs1 [10-F16, 2-chloro-1-{2,5-dimethyl-1-[2-(thiophen-2-yl)ethyl]-1H-pyrrol-3-yl}ethan-1-one] | 0.304% |
| O=C1C=CC(=O)N1c1ccc(Oc2ccccc2)cc1 [10-F17, 1-(4-phenoxyphenyl)-2,5-dihydro-1H-pyrrole-2,5-dione] | 73.6% |
| CCc1ccc(C(=O)CCl)cc1 [10-F18, 2-chloro-1-(4-ethylphenyl)ethan-1-one] | 1.07% |
| CN(c1ccc(C(=O)CCl)cc1)S(C)(=O)=O [10-F19, N-[4-(2-chloroacetyl)phenyl]-N-methylmethanesulfonamide] | 74% |
| Cc1ccc(C(=O)C(C)Cl)cc1 (centres unmarked) [10-F20, 2-chloro-1-(4-methylphenyl)propan-1-one] | 80.5% |
| CC(C)c1noc2ncc(C(=O)N3CCSSCC3)cc12 [10-F21, 5-[3-(propan-2-yl)-[1,2]oxazolo[5,4-b]pyridine-5-carbonyl]-1,2,5-dithiazepane] | 86.3% |
| CC(Cl)C(=O)c1c(N)n(C)c(=O)n(C)c1=O (centres unmarked) [10-F22, 6-amino-5-(2-chloropropanoyl)-1,3-dimethyl-1,2,3,4-tetrahydropyrimidine-2,4-dione] | 87.8% |
| O=C1C=CC(=O)N1CCc1ccccc1F [10-G03, 1-[2-(2-fluorophenyl)ethyl]-2,5-dihydro-1H-pyrrole-2,5-dione] | 11.2% |
| Cc1cc(C(=O)CCl)c(C)n1-c1ccc(OC(F)(F)F)cc1 [10-G04, 2-chloro-1-{2,5-dimethyl-1-[4-(trifluoromethoxy)phenyl]-1H-pyrrol-3-yl}ethan-1-one] | 0.243% |
| Cc1csc(-n2c(C)cc(C(=O)CCl)c2C)n1 [10-G05, 2-chloro-1-[2,5-dimethyl-1-(4-methyl-1,3-thiazol-2-yl)-1H-pyrrol-3-yl]ethan-1-one] | 72.5% |
| CCOc1ccc(C(=O)C(C)Cl)cc1 (centres unmarked) [10-G06, 2-chloro-1-(4-ethoxyphenyl)propan-1-one] | 89.3% |

| SMILES | viability at 48 h, 25 µM |
| --- | --- |
| CN1C(=O)Cc2cc(C(=O)CCl)ccc21 [10-G07, 5-(2-chloroacetyl)-1-methyl-2,3-dihydro-1H-indol-2-one] | 46.1% |
| CN1C(=C(C#N)C(=O)CCl)Sc2ccccc21 [10-G08, 4-chloro-2-(3-methyl-2,3-dihydro-1,3-benzothiazol-2-ylidene)-3-oxobutanenitrile] | 77.5% |
| O=C1C=CC(=O)N1c1cc(C(F)(F)F)ccc1Cl [10-G09, 1-[2-chloro-5-(trifluoromethyl)phenyl]-2,5-dihydro-1H-pyrrole-2,5-dione] | 58.9% |
| CNC(=O)c1cc(C(=O)CCl)cn1C [10-G10, 4-(2-chloroacetyl)-N,1-dimethyl-1H-pyrrole-2-carboxamide] | 1.73% |
| CN(C)CCN1C(=O)C=CC1=O [10-G11, 1-[2-(dimethylamino)ethyl]-2,5-dihydro-1H-pyrrole-2,5-dione] | 96.9% |
| COC(=O)C(C(=O)CCl)=C1Nc2ccccc2N1 [10-G12, methyl 4-chloro-2-(2,3-dihydro-1H-1,3-benzodiazol-2-ylidene)-3-oxobutanoate] | 48.7% |
| COC(=O)c1cc(C(=O)CCl)c(C)o1 [10-G13, methyl 4-(2-chloroacetyl)-5-methylfuran-2-carboxylate] | 76.4% |
| Cc1cc(C(=O)CCl)c(C)n1CCc1ccc(F)cc1 [10-G14, 2-chloro-1-{1-[2-(4-fluorophenyl)ethyl]-2,5-dimethyl-1H-pyrrol-3-yl}ethan-1-one] | 0.499% |
| O=C(CCl)Cc1ccc(F)cc1 [10-G15, 1-chloro-3-(4-fluorophenyl)propan-2-one] | 73.7% |
| O=C(CCl)c1cc2c3c(c1)CC(=O)N3CCC2 [10-G16, 6-(2-chloroacetyl)-1-azatricyclo[6.3.1.0,4,12]dodeca-4(12),5,7-trien-2-one] | 1.58% |
| O=C(CCl)Cc1ccc(F)cc1F [10-G17, 1-chloro-3-(2,4-difluorophenyl)propan-2-one] | 36.8% |
| COc1ccc(C(=O)CCl)c(OC)c1 [10-G18, 2-chloro-1-(2,4-dimethoxyphenyl)ethan-1-one] | 66.7% |
| CC(C)(C)c1ccc(CC(=O)CCl)cc1 [10-G19, 1-(4-tert-butylphenyl)-3-chloropropan-2-one] | 1.53% |
| O=C(CCl)c1ccc(Oc2ccccc2)cc1 [10-G20, 2-chloro-1-(4-phenoxyphenyl)ethan-1-one] | 0.299% |
| CN1C=CC(=C(C#N)C(=O)CCl)C=C1 [10-G21, 4-chloro-2-(1-methyl-1,4-dihydropyridin-4-ylidene)-3-oxobutanenitrile] | 1.3% |
| Cc1cc(C(=O)O)ccc1N1C(=O)C=CC1=O [10-G22, 4-(2,5-dioxo-2,5-dihydro-1H-pyrrol-1-yl)-3-methylbenzoic acid] | 107% |
| COC(=O)c1c(C(=O)CCl)c(C)n(C2CC2)c1C [10-H03, methyl 4-(2-chloroacetyl)-1-cyclopropyl-2,5-dimethyl-1H-pyrrole-3-carboxylate] | 93.4% |
| CC(=O)N(C)Cc1ccc(C(=O)CCl)cc1 [10-H04, N-{[4-(2-chloroacetyl)phenyl]methyl}-N-methylacetamide] | 64% |
